Measured values reported in patent US5189025A, “Methods for the treatment of malignant disease in patients using citrulline containing amino acid solutions” (priority 1990, dated 1993).
“Also recorded” adds a separate entry of the source. Where two headings read alike, the source gives them in different places.

Key:
[1] = tested on: platelet counts / host toxicity; experiment: DFMO toxicity, continuous i.v. infusion for 12 days in rats (FIG. 3); assay type: in vivo
Text: FIG. 3. […] Bars indicate standard deviation.
In the above described rat model, a continuous infusion of DFMO was given through a central venous catheter.

[2] = tested on: platelet counts / host toxicity; set-up: species or system human (patients with advanced colorectal carcinoma); conditions: human, in vivo
Text: FIG. 4. Platelet counts plotted against days of continuous i.v. DFMO infusion in patients with advanced colorectal carcinoma. […] The paired points are connected by a straight line.
There was no incidence of nausea, vomiting or diarrhea.

MCA sarcoma = experiment: DFMO effect on growth of MCA sarcoma; assay type: in vivo
[3] = tested on: DFMO-induced thrombocytopenia; conditions: rat, in vivo
[4] = tested on: polyamine levels (erythrocyte and tumor); experiment: RBC and tumor polyamine levels in tumor-bearing rats infused with amino acid solutions (Example II, Table IV); assay type: in vivo, male Fisher 344 rats; conditions: infusion alone, not in combination with essential amino acids; experimental tumor system
Text: A methylcholanthrene-induced fibrosarcoma (0.17 g) was implanted as a brei into the right flank under anesthesia and the animals were fed a chow diet for 21 days. When the tumors were at least 1.0 cm in width, two-dimensional measurements with calipers were instituted and the equation, length (cm)×(width [cm])^2 ×1/2=grams of tumor tissue, was used to estimate tumor weight. […] The animals were then allowed to recover overnight and continuous infusions were started the next morning. […] Nephramine is a parenteral amino acid solution consisting of eight essential amino acids and histidine. After 6 days of continuous infusion, the animals were sacrificed by aortic bleeding. Liver and tumor were excised and weighed and kept frozen at -70° C. until assays were done. Only viable, nonnecrotic tumor tissue was saved and assayed.
Preparation of tumor tissue for polyamine assay was done in the following manner. Tumor tissue weighing 0.5 to 1.5 g was cut into small pieces and put into a disposable tube (16×100 mm). Ice-cold 4% sulfosalicylic acid was then added at 2 ml/g wet tissue. This mixture was homogenized in an ice bath for 40 seconds using the Brinkman Polytron homogenizer (P10ST generator set at 8.5). The suspension was centrifuged at 100,000 g for 30 minutes and the resulting clear supernatant was analyzed for polyamines on a Durrum D-500 amino acid analyzer.

RBC putrescine levels = experiment: RBC putrescine in tumor-bearing and non tumor-bearing rats infused with feeding solutions (Table V); conditions: vs chow or essential amino acids only
Method: Another experiment which utilized formulations containing amino acid precursors of RBC polyamines, compared the response of tumor-bearing rats (TB) to non tumor-bearing rats (NTB). The study was performed basically in the manner described above with the following indicated differences. […] Chow rats (C) were fed chow with no i.v. infusion.
Where N is the number of rats included in the study, PUT is RBC levels (nm/g/ml, means±SD) of putrescine determined by HPLC.

[5] = tested on: DFMO-induced thrombocytopenia; experiment: Influence of ornithine co-administration on DFMO-induced thrombocytopenia in the rat (Table VI); conditions: 12 days continuous infusion

Compound: NCCCC(N)(C(=O)O)C(F)F (centres unmarked) [DFMO, Difluoromethylornithine]
- clinical toxicity ([1]; 12 day study): no significant clinical toxicity
- White cell count and hematocrit changes ([1]; rat, in vivo): not significantly altered
- White cell count [2]: not affected by either dose
- decreased hearing acuity (patients) [2]: two patients
- hematocrit [2]: Significant suppression of the hematocrit
- nausea, vomiting or diarrhea [2]: no incidence
- platelet suppression [2]: platelet suppression is the major limiting host toxicity
- platelet suppression, 8 g compared with 6 g dose [2]: significantly greater platelet suppression at the 8 g dose
- tumor regression (MCA sarcoma; MCA sarcoma): does not produce tumor regression
- growth rate of an MCA sarcoma (MCA sarcoma; in vivo): reduces the growth rate
- Platelets [3]: 409 ± 127 × 10^3 /cu. mm
- platelet suppression / change in platelet count [3]: significant decrease in platelet count as compared with the saline treatment
- decrease in tumor putrescine levels (tumor putrescine levels; DFMO infusion, rat-tumor model): 90%
- peripheral platelet counts (tumor putrescine levels; rat, in vivo): without suppressing peripheral platelet counts

Compound: N=C(N)NCCC[C@H](N)C(=O)O [arginine]
- blood polyamine levels [4]: has not produced elevated blood polyamine levels
- increase in RBC putrescine levels in NTB rats (RBC putrescine levels): significantly greater (p<0.05)

Compound: NCCC[C@H](N)C(=O)O [ornithine]
- platelet suppression / change in platelet count [5]: blocked platelet suppression; also recorded: significant reversal in the platelet suppression
